Measured values as given in US6583161B1, “Benzenesulfonamides and benzamides as therapeutic agents” (Tularik Inc., priority 1998, dated 2003).

What was measured:
HeLa cells = assay: Inhibition of HeLa cell growth (Alamar Blue uptake); type: cell-based; details: Homo sapiens; concentration required to inhibit by 50% the uptake of Alamar Blue by HeLa cell cultures
From the text: (§1) Compounds can be evaluated for their ability to inhibit in vitro the growth of HeLa cells, an immortal cell line derived from a human cervical carcinoma commonly used to evaluate the cytotoxicity of potential therapeutic agents. The following data reflect the cytotoxicity of selected examples of the present invention. The values given represent the concentration of test compound required to inhibit by 50% the uptake of Alamar Blue (Biosource International, Camarillo, Calif.) by HeLa cell cultures, which correlates directly with the overall levels of cellular metabolism in the culture, and is generally accepted as an appropriate marker of cell growth. The test was conducted according to the method of Ahmed et al. (J. Immunol. Methods 1994, 170, 211). […] Compounds were similarly evaluated for cell growth inhibition using MCF-7 cells and MCF-7/ADR cells.

MCF-7 cells = assay: Cell growth inhibition using MCF-7 cells; type: cell-based; details: Homo sapiens, MCF7
From the text: as §1

MCF-7/ADR cells = assay: Cell growth inhibition using MCF-7/ADR cells; type: cell-based; details: Homo sapiens, NCI/ADR-RES
From the text: as §1

IC50 (HeLa cells): 0.15 µM | IC50 (MCF-7 cells): 0.15 µM | IC50 (MCF-7/ADR cells): 0.5 µM | melting point: 145 to 146 °C
Compound: COc1ccc(NS(=O)(=O)c2cc(OC)c(OC)c(OC)c2)cc1O [Example 1, 1-[(3-Hydroxy-4-methoxyphenyl)aminosulfonyl]-3,4,5-trimethoxybenzene]
